We go through 88 compounds from a melting point compilation (Tetko et al.; mined from patent text by program, amines drawn as free bases though some values may be those of a salt).

The term melting point denotes the temperature, or range, at which the solid turns liquid.

Molecules are shown by their SMILES.

In turn, `CCCc1nn(C)c2c(=O)[nH]c(-c3sc(S(=O)(=O)N4CCN(C)CC4)cc3OCC)nc12` showed a melting point of 219 to 220 °C.

Compound `Cc1ccc(N2C(=O)C(O)=C(C(=O)c3ccc(N4CCOCC4)cc3)C2c2ccc(OC(F)(F)F)cc2)nn1` (stereo not drawn) returned a melting point of 234 °C.

`COc1c(C)c2c(c(O)c1CC1=C(C)C(CC(=O)O)CC1)C(=O)OC2` (stereo not drawn): the melting point lay in the range of 153 to 159 °C.

As to `Cc1[nH]c(-c2ccccc2)nc1-c1ccc(Cl)cc1Cl`, the melting point was 222 to 224 °C.

`COc1ccc(COc2nc(C3CC3)c3cc(-c4cccc(Cl)c4)ccc3n2)cc1` displayed a melting point of 158 to 159 °C.

`CC#Cc1cc(=O)n2nc(S(=O)(=O)CCCCCC)sc2n1` returned a melting point of 122 to 125 °C.

Regarding `COc1ccc2nc(COc3cccc(OCc4cccc(C)c4C(=O)O)c3)ccc2c1`, the melting point was 176 to 179 °C.

`CC(=O)c1ccc2c(c1)-c1ccccc1-2` displayed a melting point of 134 to 135 °C.

Regarding `COCC(O)COc1ccc2cc(S(N)(=O)=O)sc2c1` (stereo not drawn), the melting point was in the range of 128 to 129 °C.

On to `COc1cc(C2C3=C(COC3=O)Nc3c2cc(OC)c(OC)c3OC)ccc1O` (stereo not drawn), for which the melting point lay in the range of 290 to 291 °C.

`COc1ccc(Oc2ccc(C(C)=C3SCCCS3)cc2)cc1OC` came in with a melting point of 73.5 to 75.5 °C.

In the case of `Clc1ccc(-c2cc(C3CCN(CCCc4ccccc4)CC3)n[nH]2)cc1`, the melting point lay within 165 to 167 °C.

In turn, `N#Cn1nc(-c2ccccc2)c(=O)cc1I` showed a melting point of 135 to 137 °C.

The compound `O=C(NCc1cccnc1)c1ccc2n1Cc1ccccc1N(C(=O)c1ccc(-c3ccccc3CN3CCCCC3)cc1)C2` had a melting point of 199 to 202 °C.

Compound `Cc1ccn2c(C(=O)NCc3ccccc3)c(C)nc2c1` registered a melting point of 166 to 167 °C.

Take `C#CC(CC)(CC)NC(N)=O`: the melting point worked out at 108 °C.

`CCN(CC)c1c([N+](=O)[O-])cc(C#N)c(N)c1[N+](=O)[O-]` returned a melting point of 146 °C.

The compound `CC(=O)Nc1cc(=O)cc2n1CCCCC2` gave a melting point above 230 °C.

For the compound `CCc1c(Sc2cc(C)cc(C)c2)n(CC2CC=CC2)c(=O)[nH]c1=O`, the melting point was in the range of 128 to 130 °C.

On to `CC1CCCCN1C(=O)COc1nc(C(Cl)(Cl)Cl)ns1` (stereo not drawn), for which the melting point was determined as 88 °C.

Consider `NC(=O)c1cccc(NS(=O)(=O)c2cc(S(=O)(=O)Nc3cccc(C(N)=O)c3)c3cc(O)ccc3c2)c1`, for which the melting point lay within 169 to 171 °C.

For the compound `CCCCCCNC(=O)c1cnc(Cl)nc1`, the melting point fell in the range of 101 to 102 °C.

On to `O=C(NCC1(c2ccccc2)CCCCC1)Nc1ccc(F)cc1F`, for which the melting point lay within 163 to 165 °C.

The compound `CCCC/C(=C\C=C\C(=O)O)c1ccc(OC)cc1` had a melting point of 138 to 140 °C.

`O=c1[nH]c2sc3c(Cl)cccc3c2[nH]c1=O` displayed a melting point above 300 °C.

`Clc1cc(Cl)cc(C2=NOCCS2)c1` yielded a melting point of 88 to 89 °C.

In the case of `CCn1ncnc1COc1nn2c(-c3c(F)ccc(F)c3F)nncc2c1C(C)(C)C`, the melting point worked out at 42 °C.

The compound `Cc1ccc(NCC2CCN(C3CCCCC3)CC2)c(C(=O)Nc2ccc(Cl)cn2)c1` yielded a melting point of 179 to 182 °C.

For the compound `Nc1cnn(CCO)c1NCCO`, the melting point was in the range of 140 to 142 °C.

As to `CNS(=O)(=O)c1cc(C(=O)c2c(C)[nH]c3ccccc23)ccc1Cl`, the melting point was determined as 246 °C.

In turn, `Nc1nc(Cl)nc2c1ncn2C1C=CCCC1` (stereo not drawn) returned a melting point of 195 to 197 °C.

As for `CC1OCC(=O)N(C(=O)O)C1c1ccc(F)c(F)c1` (single isomer, unassigned; (+)), the melting point lay within 191 to 194 °C.

Consider `COc1ccc(-c2c(Cl)c(CN3C(=O)CCC3=O)nc3sc4c(c23)CCC(=O)C4)cc1`, for which the melting point lay within 257 to 258 °C.

Regarding `Cc1cc2c(cc1Cl)N(C(=O)Nc1ccncc1)CC2`, the melting point is above 230 °C.

The compound `COC(=O)c1ccc(-c2coc3ccc(-c4nnc(C)o4)cc23)c(Cl)c1` yielded a melting point of 171 to 172 °C.

In turn, `CC(=O)Nc1cc(Br)sc1Br` returned a melting point of 114 to 116 °C.

As to `CC1(C)CCC(=O)Nc2cc(Nc3ncc4cc5ccccc5n4n3)ccc21`, the melting point is 230 to 240 °C.

The compound `O=c1c2c(Cc3ccccc3)n[nH]c2c2cccnc2n1-c1ccc(O)cc1` yielded a melting point above 320 °C.

`Cc1cccc(S(=O)(=O)N2CCn3c(c(C(N)=O)c(Cl)c3-c3ccccc3)C2)c1`: the melting point is 165 to 167 °C.

Regarding `Fc1ccc(Cn2c(OC3CCN(Cc4ccccc4)CC3)nc3cncnc32)cc1`, the melting point is 117 °C.

`CCCc1ccc(-c2ccc(=O)[nH]n2)cc1` had a melting point of 180 to 182 °C.

The compound `CN=C(NS(=O)(=O)N1CCOCC1)C1=NN(c2ccc(Cl)cc2Cl)C(c2ccccc2)C1` (stereo not drawn) gave a melting point of 161 to 165 °C.

As for `COC(=O)COc1cccc2c(CCSC(c3ccc(Cl)cc3)c3ccc(Cl)cc3)coc12`, the melting point was in the range of 68 to 69 °C.

As for `COc1cc(C(=O)O)c(Br)cc1C(=O)O`, the melting point is 275 °C.

With `COC1=C(OCCCc2ccccc2)c2c(C)ccnc2C(N)([N+](=O)[O-])C1` (stereo not drawn), the melting point was 91 to 91.5 °C.

Compound `CCC(CC)N1COCc2c1cc(C)nc2Oc1c(C)cc(C)cc1C` gave a melting point of 112 to 114 °C.

With `CN(C)c1cc2nc(C(C)(C)C)sc2cc1N`, the melting point came out at 169 °C.

`O=S(=O)(N[C@@H]1C[C@@H](/C=C\CCCCO)N(S(=O)(=O)c2ccc(Cl)cc2)C1)c1ccc(Cl)cc1`: the melting point lay within 108 to 109 °C.

Take `CC(C)c1cc(C(C)C)c(-c2csc(Br)n2)c(C(C)C)c1`: the melting point stood at 236 °C.

As to `CC(C)CCCC(C)C1CCC2C3CC=C4CC(NC(=O)CCNC(=O)CCCCCNc5ccc([N+](=O)[O-])cc5[N+](=O)[O-])CCC4(C)C3CCC12C` (stereo not drawn), the melting point is 197 to 198 °C.

The compound `FC(F)Oc1cn(-c2c(Cl)cc(C(F)(F)F)cc2Cl)nc1C(F)(F)F` yielded a melting point of 55.5 to 58 °C.

Regarding `CN1C=NC(Cc2ccccc2)(Cc2ccccc2)C1=O`, the melting point lay within 125 to 126 °C.

As for `COC(=O)Cn1c(C(=O)OCc2ccccc2)cc2cc(C)cc(C)c21`, the melting point is 91 to 93 °C.

Compound `CN1CC(CO)CC2(OCCCO)c3cccc4[nH]cc(c34)CC12` (stereo not drawn) displayed a melting point of 189 to 195 °C.

In the case of `c1cc(-c2n[nH]c3c2Cc2cc(CN4CCOCC4)ccc2-3)cs1`, the melting point fell in the range of 196 to 198 °C.

Take `CC(C)(C)OC(=O)N1CCC[C@H](COc2cccnc2Br)C1`: the melting point fell in the range of 79 to 81 °C.

The compound `COc1ccc(S(=O)(=O)N2CCc3[nH]c4c(cnc5cc(Cl)ccc54)c3C2)cc1` registered a melting point above 250 °C.

The compound `CC(=O)NNc1ccnc2c(NC(=O)c3c(Cl)cccc3Cl)cc(C)cc12` displayed a melting point of 263 to 266 °C.

`Fc1cccc(CSc2nnc(-c3ccc4nccn4c3)o2)c1`: the melting point was 173 to 174 °C.

The compound `O=C1CCN(Cc2cccc(C(F)(F)F)c2)CC1C(c1ccccc1)c1ccccc1` (stereo not drawn) displayed a melting point of 128 to 129 °C.

For the compound `CC1(C)Oc2ccc(C#N)cc2C(OC(=O)C2CCCN2S(=O)(=O)c2cccc([N+](=O)[O-])c2)C1Br` (stereo not drawn), the melting point lay within 171 to 174 °C.

In the case of `O=C(O)C1C=Nc2c(ccc3ncccc23)N1O` (stereo not drawn), the melting point was above 300 °C.

The compound `CC(=O)Nc1cccc2c1S(=O)(=O)N=C2C1=C(O)C(C(C)(C)C)N(Cc2ccc(F)cc2)C1=O` (stereo not drawn) displayed a melting point of 164 to 167 °C.

Regarding `COC(=O)c1cc(OCc2ccccc2)cc(C(=O)OC)c1`, the melting point is 94 to 95 °C.

`O=c1oc(-c2ccc(F)cc2)cc2ccccc12` registered a melting point of 134 to 135 °C.

`CC(C)(C)OC(=O)CCOCCCc1ccnc(-c2nc(=O)c3ccccc3s2)c1` gave a melting point of 81.1 to 82.2 °C.

Turning to `CCCCc1c[nH]cn1`, the melting point is 42 to 45 °C.

Regarding `CN1CCN(CCCNc2ncc3cc(-c4c(Cl)cccc4Cl)c(NC(=O)Nc4ccc(C(F)(F)F)cc4)nc3n2)CC1`, the melting point fell in the range of 146 to 151 °C.

`CC(C)C(Oc1ccccc1)C(=O)NCCO[N+](=O)[O-]` (stereo not drawn) had a melting point of 76 to 77 °C.

Take `CC(=O)NCC#CCn1ccnc1`: the melting point lay in the range of 93 to 95 °C.

`COC1(OC)CC(c2ccccc2)N(O)C(c2ccccc2)C1` (stereo not drawn) came in with a melting point of 172 to 175 °C.

In turn, `Cc1ccc2nc3ccc(=O)c(Cl)c-3sc2c1` had a melting point of 218 °C.

As for `Cc1c(C)c2ccc(OCCCCCc3ccccc3)cc2oc1=O`, the melting point was 101 °C.

Consider `CCc1nc(-c2ccc(/C=C/C3(O)CN4CCC3CC4)cc2)no1` (stereo not drawn), for which the melting point is 158 to 160 °C.

Regarding `Cc1ccc(C(=O)NCC2CCN(C[C@H]3COc4ccc(Cl)cc4O3)CC2)c(N)n1`, the melting point was 160 to 163 °C.

As for `CCCCCCCCCCCCCCCCCCOC(=O)N(C)CC(O)C(O)C(O)C(O)CO` (stereo not drawn), the melting point is 85 °C.

For the compound `CCN(C(=O)OC(C)(C)C)C(Cc1ccccc1)C(=O)NC(CCSC)C(=O)NCC(=O)NC(Cc1ccccc1)C(=O)NC1C2CC3CC(C2)CC1C3` (stereo not drawn), the melting point fell in the range of 175 to 178 °C.

Regarding `Nc1c(-c2csc(-c3ccncc3)n2)c(=O)[nH]c2ccc(Cl)cc12`, the melting point was above 220 °C.

`CCOc1ccc([N+](=O)[O-])c(NC2CCOCC2)c1` came in with a melting point of 117 °C.

`CCC(C)(Oc1ccc(CC(=O)Nc2cc(C)cc(C)c2)cc1)C(=O)O` (stereo not drawn) registered a melting point of 131 to 133 °C.

In turn, `Cc1cccc(NC(=O)NCC(=O)N(CC(=O)N(C)c2ccc(F)cc2)c2ccccc2)c1` gave a melting point of 135 °C.

`CCCCc1nc2cccc(C(=O)O)c2n1Cc1ccc(-c2cncnc2-c2nnn[nH]2)cc1`: the melting point lay within 209 to 212 °C.

Regarding `O=Cc1cc(Cl)c(F)cc1O`, the melting point was 103 to 104 °C.

Take `CC(C)(C)O[C@@H]1C[C@@H](CO)N(S(=O)(=O)c2ccc3ccccc3c2)C1`: the melting point lay in the range of 124 to 125 °C.

`CCOc1ccc(CCNC(=O)/C=C/c2cccs2)cc1S(N)(=O)=O` gave a melting point of 55 °C.

The compound `COc1nscc1C(N)=O` yielded a melting point of 165 to 168 °C.

Take `COC(=O)C(=O)NC(=O)N1CCCCC1`: the melting point lay within 92 to 93 °C.

Turning to `COc1ccc(-c2cc(-c3ccccc3)[nH]c2C(=O)NCc2ccc(C(=O)Nc3ccccc3S)cc2)cc1`, the melting point lay within 134 to 135 °C.
